Experimental data reported in patent publication EP0245669B1, “Pharmaceutical preparation for preventing damage to living cells by free radicals, or for increasing the efficacy of organic sulphur compounds, and process for increasing the life span of isolated organs” (Medopharm Arzneimittelwerk Dr. Zillich GmbH & Co., priority 1986, dated 1987).

Experiments:
weiblichen C3H Mäusen = assay: Radiation protection: survival of mice after gamma irradiation (cobalt-60) following i.p. pretreatment; format: in vivo, Mäuse; details: for Ueberlebensrate nach Bestrahlung mit 9 Gy % / Ueberlebensrate nach Bestrahlung mit 9 Gy Anzahl: 10 min before 9 Gy; for Ueberlebensrate nach Bestrahlung mit 9 Gy Anzahl / Ueberlebensrate nach Bestrahlung mit 10 Gy Anzahl / Ueberlebensrate nach Bestrahlung mit 11 Gy Anzahl: surviving/irradiated mice; for Ueberlebensrate nach Bestrahlung mit 11 Gy % / Ueberlebensrate nach Bestrahlung mit 11 Gy Anzahl: 30 min before 11 Gy
Source text: In den nachfolgenden Beispielen wurde die synergistische Wirkung der durch die erfindungsgemässe Verwendung hergestellten pharmazeutischen Präparate mit organische Schwefelverbindungen enthaltenden Präparaten anhand des Strahlenschutzes getestet und es wurde auch die Strahlenschutzwirkung der Zinkionen enthaltenden Präparate mit bisher bekannten Strahlenschutzpräparaten an Mäusen getestet. Die Versuche wurden mit weiblichen C3H Mäusen (GL. Bomholtgard, Ry, Dänemark) durchgeführt, die 20 bis 22 g wogen. Die Mäuse wurden unter Bedingungen gehalten, wo sie so viel Standard-Nagetierfutter (Nafag Pellts) fressen und so viel Leitungswasser trinken können, wie sie wollten. Die Bestrahlung erfolgte mit Gammastrahlen aus einer Kobalt-60 Quelle. Es wurden unterschiedliche Bestrahlungen vorgenommen, und zwar mit 9 Gy, 10 Gy, 11 Gy, 12 Gy, 13 Gy und 14 Gy.
10 Minuten vor der Bestrahlung, 30 Minuten vor der Bestrahlung oder 120 Minuten vor der Bestrahlung wurde ein durch die erfindungsgemässe Verwendung hergestelltes synergistisch wirkendes pharmazeutisches Präparat, bzw. ein entsprechendes, Zinkionen enthaltendes Strahlenschutzpräparat oder ein aus dem Stand der Technik bekanntes Strahlenschutzpräparat zu Vergleichszwecken durch intraperitoneale Injektion verabreicht.
Bei der Gruppe der Mäuse zu Vergleichszwecken, die ohne Verabreichung eines Strahlenschutzpräparates bestrahlt wurden, erfolgte 10 Minuten vor der Bestrahlung die Verabreichung von destilliertem Wasser. Bei diesen unbehandelten Mäusen überlebten nur 50% der Tiere eine Bestrahlung von 8 Gy, d.h. der LD₅₀-Wert betrug 8 Gy.
Nach den Arbeitsweisen der vorangegangenen Beispiele 1 bis 4, wurden weitere Tests mit den genannten weiblichen Mäusen durchgeführt, und zwar unter Verwendung der angeführten Zinksalze. Die bei diesen Tests erzielten Ergebnisse sind in der nachfolgenden Tabelle I zusammengestellt. Für jede der angewandten Bestrahlungsstärken ist in der Rubrik "Anzahl" diejenige Anzahl der Mäuse angeführt, welche die Bestrahlung überlebten, geteilt durch die Gesamtzahl der Mäuse, welche bestrahlt wurden. Ein entsprechender Wert von 1/10 bedeutet also, dass von 10 bestrahlten Mäusen eine überlebt hatte. In der Spalte mit der Bezeichnung "Prozent", ist die Prozent-Ueberlebensrate angeführt. Bei einer überlebenden Maus pro 10 getesteten Mäusen beträgt diese Ueberlebensrate 10 %.
Zu Vergleichszwecken sind in der nachfolgenden Tabelle III die Ueberlebensraten von Mäusen zusammengestellt, die nach dem in Beispiel 5 beschriebenen Verfahren einer Vorbehandlung mit einem bekannten schwefelhaltigen Strahlenschutzmittel unterworfen worden waren. Orientierende Vorversuche hatten gezeigt, dass diese Strahlenschutzmittel bereits ihre Wirkung verloren hatten, wenn sie zwei Stunden vor der Einwirkung der Bestrahlung verabreicht worden waren. Die Bestrahlung wurde, wie aus der Tabelle ersichtlich ist, zwei Minuten nach der Verabreichung, in den meisten Fällen 10 Minuten nach der Verabreichung, aber auch 30 Minuten, bzw. 120 Minuten nach der Verabreichung durchgeführt. Die Werte deuten darauf hin, dass 30 Minuten nach der Verabreichung die Schutzwirkung schon wieder deutlich nachgelassen hat. Für jede Bestrahlungsstärke ist wiederum die Anzahl der Tiere angeführt, die nach 30 Tagen überlebt haben, geteilt durch die Gesamtzahl der Tiere, die behandelt und bestrahlt worden waren.
Anhand dieses Beispiels soll die synergistische Wirkung von Zinkionen und Schwefelverbindungen bezüglich eines Strahlenschutzes erläutert werden. Es wurde wieder in der gleichen Weise gearbeitet, wie in den vorangegangenen Beispielen 1 bis 3, bzw. 5, und es wurde auch die gleiche Art an weiblichen Mäusen getestet. Die Verabreichung der Zinkionen enthaltenden Lösung und der Lösung der Schwefelverbindung erfolgte entweder nacheinander oder gleichzeitig durch intraperitoneale Injektion.
In allen Fällen wurde die Ueberlebensrate 30 Tage nach der Einwirkung der Bestrahlung bestimmt.

Mäuse = assay: Toxicity of the zinc salts used as radiation protection agents (LD50); format: in vivo
Experimental: In diesem Beispiel wurde die Toxizität der als Strahlenschutzmittel eingesetzten Zinksalze getestet.
Der LD₅₀-Wert betrug für das Zinkaspartat 55 mg/kg Körpergewicht, für das Zinkchlorid 24 mg/kg Körpergewicht und für das Zinksulfat 45 mg/kg Körpergewicht.

[1] = Table II: 10 mg/kg i.p., 30 min before 10 Gy
[2] = Table II: 15 mg/kg i.p., 30 min before 10 Gy
[3] = Table II, Zinksulfat: 15 mg/kg i.p.
[4] = Table II, Zinksulfat: 15 mg/kg i.p., 10 min before 10 Gy
[5] = Table II, Zinksulfat: 30 mg/kg i.p.
[6] = Table II, Zinksulfat: 30 mg/kg i.p., 10 min before 10 Gy
[7] = Table II, Zinksulfat: 22,5 mg/kg i.p.
[8] = Table II, Zinksulfat: 22,5 mg/kg i.p., 10 min before 10 Gy

Compound: [Cl-].[Cl-].[Zn+2] [Zinkchlorid]
- Ueberlebensrate nach Bestrahlung mit 9 Gy % (weiblichen C3H Mäusen; Table II: 10 mg/kg i.p.): 20%
- Ueberlebensrate nach Bestrahlung mit 9 Gy Anzahl (weiblichen C3H Mäusen; Table II: 10 mg/kg i.p.): 2/10
- Ueberlebensrate nach Bestrahlung mit 10 Gy % (weiblichen C3H Mäusen; [1]): 15%
- Ueberlebensrate nach Bestrahlung mit 10 Gy Anzahl (weiblichen C3H Mäusen; [1]): 3/20
- Ueberlebensrate nach Bestrahlung mit 9 Gy % (weiblichen C3H Mäusen; Table II: 15 mg/kg i.p.): 30%
- Ueberlebensrate nach Bestrahlung mit 9 Gy Anzahl (weiblichen C3H Mäusen; Table II: 15 mg/kg i.p.): 3/30
- Ueberlebensrate nach Bestrahlung mit 10 Gy % (weiblichen C3H Mäusen; [2]): 20%
- Ueberlebensrate nach Bestrahlung mit 10 Gy Anzahl (weiblichen C3H Mäusen; [2]): 4/20
- Ueberlebensrate nach Bestrahlung mit 9 Gy % (weiblichen C3H Mäusen; Table II: 20 mg/kg i.p.): 10%
- Ueberlebensrate nach Bestrahlung mit 9 Gy Anzahl (weiblichen C3H Mäusen; Table II: 20 mg/kg i.p.): 0/10
- LD₅₀-Wert (Mäuse): 24 mg/kg Körpergewicht

Compound: Zinksulfat
- Ueberlebensrate nach Bestrahlung mit 9 Gy % (weiblichen C3H Mäusen; [3]): 0%
- Ueberlebensrate nach Bestrahlung mit 9 Gy Anzahl (weiblichen C3H Mäusen; [3]): 1/10
- Ueberlebensrate nach Bestrahlung mit 10 Gy % (weiblichen C3H Mäusen; [4]): 22%
- Ueberlebensrate nach Bestrahlung mit 10 Gy Anzahl (weiblichen C3H Mäusen; [4]): 2/9
- Ueberlebensrate nach Bestrahlung mit 11 Gy % (weiblichen C3H Mäusen; [3]): 0%
- Ueberlebensrate nach Bestrahlung mit 11 Gy Anzahl (weiblichen C3H Mäusen; [3]): 0/20
- Ueberlebensrate nach Bestrahlung mit 9 Gy Anzahl (weiblichen C3H Mäusen; [5]): 0/10
- Ueberlebensrate nach Bestrahlung mit 10 Gy % (weiblichen C3H Mäusen; [6]): 33%
- Ueberlebensrate nach Bestrahlung mit 10 Gy Anzahl (weiblichen C3H Mäusen; [6]): 3/9
- Ueberlebensrate nach Bestrahlung mit 11 Gy % (weiblichen C3H Mäusen; [5]): 5%
- Ueberlebensrate nach Bestrahlung mit 11 Gy Anzahl (weiblichen C3H Mäusen; [5]): 1/20
- Ueberlebensrate nach Bestrahlung mit 9 Gy % (weiblichen C3H Mäusen; [7]): 80%
- Ueberlebensrate nach Bestrahlung mit 9 Gy Anzahl (weiblichen C3H Mäusen; [7]): 8/10
- Ueberlebensrate nach Bestrahlung mit 10 Gy % (weiblichen C3H Mäusen; [8]): 33%
- Ueberlebensrate nach Bestrahlung mit 10 Gy Anzahl (weiblichen C3H Mäusen; [8]): 3/9
- Ueberlebensrate nach Bestrahlung mit 11 Gy % (weiblichen C3H Mäusen; [7]): 0%
- Ueberlebensrate nach Bestrahlung mit 11 Gy Anzahl (weiblichen C3H Mäusen; [7]): 0/20
- LD₅₀-Wert (Mäuse): 45 mg/kg Körpergewicht
